#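 Cells were grown in 96-well plates and exposed to each compound for 48 hours at five concentrations; endpoints were interpolated linearly between bracketing concentrations, or set to the highest concentration if not reached. The concentration for 50% growth inhibition is given as GI50.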 Active and inactive are the calls of the source. Cut-off read from the data, not from the text of the source: active = GI50 up to about 1.1 µM and inactive = higher.
# How the values were obtained:
# Assay in all cases: DTP human tumour cell line panel, 48 h
# [1] = tested on: COLO 205
# [2] = tested on: EKVX
# [3] = tested on: HCT-116
# [4] = tested on: HCT-15
# [5] = tested on: HOP-62
# [6] = tested on: HT-29
# [7] = tested on: LOX IMVI
# [8] = tested on: MCF7
# [9] = tested on: MDA-MB-435
# [10] = tested on: MDA-N
# [11] = tested on: NCI-H460
# [12] = tested on: OVCAR-4
# [13] = tested on: PC-3
# [14] = tested on: RPMI-8226
# [15] = tested on: SF-268
# [16] = tested on: SK-MEL-2
# [17] = tested on: SK-MEL-5
# [18] = tested on: TK-10
# [19] = tested on: UO-31
# [20] = tested on: SF-539
Structure (SMILES),GI50 [1],GI50 [2],GI50 [3],GI50 [4] [µM],GI50 [5],GI50 [6],GI50 [7],GI50 [8],GI50 [9],GI50 [10],GI50 [11],GI50 [12],GI50 [13],GI50 [14],GI50 [15],GI50 [16],GI50 [17],GI50 [18],GI50 [19],GI50 [20]
Nc1cc(C(=O)O)nc(O)n1,> 100 µM (inactive),> 100 µM (inactive),> 100 µM (inactive),> 100,> 100 µM (inactive),> 100 µM (inactive),> 100 µM (inactive),> 100 µM (inactive),> 100 µM (inactive),> 100 µM (inactive),> 100 µM (inactive),> 100 µM (inactive),> 100 µM (inactive),> 100 µM (inactive),> 100 µM (inactive),> 100 µM (inactive),> 100 µM (inactive),> 100 µM (inactive),> 100 µM (inactive),–
CCCC(=O)OCC1(CO)C/C(=C/CC(C(C)C)C(C)C)C(=O)O1 (stereo not drawn),> 100 µM (inactive),> 100 µM (inactive),> 100 µM (inactive),> 100,> 100 µM (inactive),> 100 µM (inactive),17.4 µM (inactive),> 100 µM (inactive),> 100 µM (inactive),> 100 µM (inactive),> 100 µM (inactive),> 100 µM (inactive),> 100 µM (inactive),–,> 100 µM (inactive),> 100 µM (inactive),54.7 µM (inactive),> 100 µM (inactive),> 100 µM (inactive),–
Cc1cccc2c1C(=O)C1(Cc3ccccc3C1=O)C2 (stereo not drawn),> 100 µM (inactive),> 100 µM (inactive),> 100 µM (inactive),> 100,> 100 µM (inactive),> 100 µM (inactive),> 100 µM (inactive),> 100 µM (inactive),> 100 µM (inactive),> 100 µM (inactive),70.3 µM (inactive),> 100 µM (inactive),> 100 µM (inactive),57.9 µM (inactive),> 100 µM (inactive),–,> 100 µM (inactive),> 100 µM (inactive),28.9 µM (inactive),> 100 µM (inactive)
S=C(c1c[nH]c2ccccc12)N1CCCCC1,> 100 µM (inactive),85.9 µM (inactive),95.1 µM (inactive),82.2,> 100 µM (inactive),> 100 µM (inactive),> 100 µM (inactive),84.1 µM (inactive),85.5 µM (inactive),> 100 µM (inactive),> 100 µM (inactive),–,49.8 µM (inactive),36.9 µM (inactive),> 100 µM (inactive),> 100 µM (inactive),40 µM (inactive),> 100 µM (inactive),–,> 100 µM (inactive)
CCOC(=O)c1c[nH]c(C(=O)C=[N+]=[N-])c1C1CCN(CC)C1=S (stereo not drawn),63.5 µM (inactive),> 100 µM (inactive),> 100 µM (inactive),> 100,> 100 µM (inactive),> 100 µM (inactive),–,> 100 µM (inactive),> 100 µM (inactive),> 100 µM (inactive),93.3 µM (inactive),> 100 µM (inactive),> 100 µM (inactive),> 100 µM (inactive),> 100 µM (inactive),> 100 µM (inactive),> 100 µM (inactive),> 100 µM (inactive),> 100 µM (inactive),–
O=P(O)(O)C=C=C1CCCCC1,> 100 µM (inactive),> 100 µM (inactive),> 100 µM (inactive),> 100,> 100 µM (inactive),> 100 µM (inactive),> 100 µM (inactive),> 100 µM (inactive),> 100 µM (inactive),> 100 µM (inactive),> 100 µM (inactive),> 100 µM (inactive),> 100 µM (inactive),–,> 100 µM (inactive),> 100 µM (inactive),> 100 µM (inactive),> 100 µM (inactive),–,> 100 µM (inactive)
COC(=O)c1cc2c(o1)Sc1ccccc1NC2=O,> 100 µM (inactive),–,> 100 µM (inactive),> 100,52.1 µM (inactive),> 100 µM (inactive),> 100 µM (inactive),> 100 µM (inactive),> 100 µM (inactive),> 100 µM (inactive),> 100 µM (inactive),> 100 µM (inactive),> 100 µM (inactive),> 100 µM (inactive),31.8 µM (inactive),> 100 µM (inactive),> 100 µM (inactive),> 100 µM (inactive),–,29 µM (inactive)
C/C(Cc1ccc2c(c1)OCO2)=N\NC(=O)C(C)Sc1nnc(SC(C)C(=O)N/N=C(\C)Cc2ccc3c(c2)OCO3)s1 (stereo not drawn),> 100 µM (inactive),81.3 µM (inactive),> 100 µM (inactive),> 100,> 100 µM (inactive),> 100 µM (inactive),> 100 µM (inactive),24.1 µM (inactive),> 100 µM (inactive),> 100 µM (inactive),> 100 µM (inactive),> 100 µM (inactive),> 100 µM (inactive),37.6 µM (inactive),> 100 µM (inactive),> 100 µM (inactive),69.3 µM (inactive),> 100 µM (inactive),> 100 µM (inactive),–
COc1cc(S(=O)(=O)N/N=C/C=C/c2ccccc2)c(OC)cc1NC(C)=O,17.7 µM (inactive),5.14 µM (inactive),91.2 µM (inactive),19.5,> 100 µM (inactive),9.62 µM (inactive),15.5 µM (inactive),52.2 µM (inactive),38.8 µM (inactive),78.9 µM (inactive),–,19.6 µM (inactive),77.8 µM (inactive),19.1 µM (inactive),35.4 µM (inactive),47 µM (inactive),3.73 µM (inactive),–,42.9 µM (inactive),5.26 µM (inactive)
O=C1CCC[C@H]2O[C@@H](COCc3ccccc3)C[C@@H]12,> 100 µM (inactive),–,> 100 µM (inactive),> 100,> 100 µM (inactive),> 100 µM (inactive),–,> 100 µM (inactive),> 100 µM (inactive),> 100 µM (inactive),> 100 µM (inactive),> 100 µM (inactive),> 100 µM (inactive),> 100 µM (inactive),> 100 µM (inactive),> 100 µM (inactive),> 100 µM (inactive),> 100 µM (inactive),> 100 µM (inactive),> 100 µM (inactive)
COc1nc2ccc(COc3ccc(C(=O)O)cc3)cc2nc1OC,> 100 µM (inactive),> 100 µM (inactive),39.9 µM (inactive),65.6,> 100 µM (inactive),> 100 µM (inactive),54.1 µM (inactive),> 100 µM (inactive),33.7 µM (inactive),38.2 µM (inactive),> 100 µM (inactive),> 100 µM (inactive),71.4 µM (inactive),–,82 µM (inactive),> 100 µM (inactive),> 100 µM (inactive),–,> 100 µM (inactive),45.5 µM (inactive)
NS(=O)(=O)c1ccc(NCc2cccc3c(=O)c4ccc(Cl)cc4oc23)cc1,55.1 µM (inactive),> 33.8 µM (inactive),6.17 µM (inactive),11.5,39.7 µM (inactive),31.4 µM (inactive),20.9 µM (inactive),8.34 µM (inactive),19.7 µM (inactive),23.1 µM (inactive),–,> 95.9 µM (inactive),31 µM (inactive),24 µM (inactive),19.5 µM (inactive),68.7 µM (inactive),59.4 µM (inactive),> 72.9 µM (inactive),25.5 µM (inactive),14.2 µM (inactive)
CC(=O)OC1CCC2C3CCc4c(C)ccc(OS(=O)(=O)c5ccccc5)c4C3CCC12C (stereo not drawn),18.6 µM (inactive),46.9 µM (inactive),3.37 µM (inactive),7.73,26.4 µM (inactive),13.1 µM (inactive),7.41 µM (inactive),16.2 µM (inactive),41.7 µM (inactive),> 100 µM (inactive),6.61 µM (inactive),21.8 µM (inactive),5.57 µM (inactive),21.7 µM (inactive),> 100 µM (inactive),30.8 µM (inactive),3.74 µM (inactive),52.1 µM (inactive),21.9 µM (inactive),–
COC(=O)CCC(NC(=O)C(C)NC(=O)COC1C(O)C(OC(=O)CCNc2c3ccccc3nc3cccc([N+](=O)[O-])c23)OC(OCc2ccccc2)C1NC(C)=O)C(N)=O (stereo not drawn),–,> 10 µM (inactive),1.64 µM (inactive),3.21,3.7 µM (inactive),2.62 µM (inactive),> 10 µM (inactive),2.28 µM (inactive),3.39 µM (inactive),2.24 µM (inactive),> 10 µM (inactive),–,> 10 µM (inactive),–,7.26 µM (inactive),1.93 µM (inactive),1.61 µM (inactive),> 10 µM (inactive),> 10 µM (inactive),> 10 µM (inactive)
O=c1[nH]nc(-c2ccccc2)n1/N=C/c1cccnc1,–,71.1 µM (inactive),54.3 µM (inactive),61.1,> 100 µM (inactive),93.1 µM (inactive),> 100 µM (inactive),47.1 µM (inactive),64.7 µM (inactive),34.9 µM (inactive),43.8 µM (inactive),–,52.2 µM (inactive),74 µM (inactive),> 100 µM (inactive),–,57 µM (inactive),> 100 µM (inactive),> 100 µM (inactive),40.4 µM (inactive)

# Source: ChEMBL document CHEMBL1201862, “PubChem BioAssay data set” (2004)
